These results are taken from patent publication US9446122B2, “Use of GK-1 peptide expressed on M13 filamentous phage as pharmaceutical ingredient to enhance the efficiency of the immune response induced by vaccine or pathogen antigens” (UNIVERSIDAD NACIONAL AUTONOMA DE MEXICO, priority 2011, dated 2016).

The test system of test [1] is immune response elicited by influenza vaccine. The test is described as follows: Serum IgG after subcutaneous immunization, FGK-1 versus synthetic GK-1 (Example 4). It counts as in vivo, female BALB/cAnN mice. The note with it: younger mice. Here is the method:
The following treatment schedules were assessed for five-mouse groups:
(§1) Influenza vaccine was administered at a dose of 1 μg/mouse [A/New Caledonia/20/99(H1N1) strain, A/Panama/2007/99(H3N2) strain (analog to A/Moscow/10/99 strain), and B/Victoria/504/2000 strain (analog to B/Sichuan/379/99 strain)]. FLUZONE® vaccine for the flu season 2004-2005, containing 45 μg of hemagglutinin HA per 0.5 ml-dose, was used.
(§2) Synthetic GK-1 peptide was used at its optimal dose (Segura-Velźquez et al. 2006), in a 10 μg/mouse concentration.
Mice received a single dose of each immunogen by subcutaneous route at the tail base, and the induced response was evaluated in serum 21 days after immunization. Sera were obtained from peripheral blood, centrifuged at 5,000 rpm by 12 min, and aliquots were frozen until analysis.

Test [2] has as its system immune response elicited by intranasally administered influenza vaccine. Briefly: Serum IgG after intranasal immunization, FGK-1 versus synthetic GK-1 (Example 5). It counts as in vivo, female BALB/cAnN mice. As for the experimental part: The following treatment schedules were administered to five-mouse groups:
as §1, §2
Mice were administered intranasally one single dose of each immunogen, and the induced response was evaluated in serum and bronchoalveolar lavages in different times after immunization, namely 21 and 45 days. Sera were obtained from peripheral blood, centrifuged at 5,000 rpm by 12 min, and aliquots were frozen until analysis. Bronchoalveolar lavages were obtained by performing intratracheal lavages with 300 μl of saline solution 45 days after immunization.

Regarding “G-Y-Y-Y-P-S-D-P-N-T-F-Y-A-P-P-Y-S-A (GYYYPSDPNTFYAPPYSA) [synthetic GK-1 peptide, 18-amino acid peptide derived from a Taenia solium cysticerci cDNA library]”, in test [1] (co-administered with influenza vaccine), the “antibody levels versus vaccine alone” value is “does not increase antibody levels”. For the same substance, in test [1] (subcutaneous, 21 days), the “antibody response versus influenza vaccine alone” value is on record as “slightly higher antibody response”. The “potentiation of influenza vaccine by intranasal administration” value in test [2] is “does not potentiate the vaccine”.
